Test results: PMC9928118, “Funneling modulatory peptide design with generative models: Discovery and characterization of disruptors of calcineurin protein-protein interactions” (PLOS Computational Biology, 2023)

System: GST-tagged Cn
Experiment: PEPperPRINT peptide microarray binding assay with GST-tagged Cn
Summary of the method: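 Qualitative binding: peptides printed on a PEPperPRINT microarray were incubated overnight at 4 °C with 1 mg/ml GST-tagged Cn, then detected with Alexa-Fluor 647 anti-GST antibody. Log fluorescence was baseline-corrected, averaged over duplicate spots, Z-normalized and averaged across five repeats.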

[1] = GST-tagged Cn, max over the chip spots listed under Location on chip
[2] = GST-tagged Cn, mean over the chip spots listed under Location on chip
[3] = GST-tagged Cn, max over the spots named in Location on chip
[4] = GST-tagged Cn, mean over the spots named in Location on chip
[5] = max over the chip locations listed for the peptide (two spots)
[6] = mean over the chip locations listed for the peptide (two spots)
[7] = GST-tagged Cn, max over the chip locations
[8] = GST-tagged Cn, mean over the chip locations
[9] = GST-tagged Cn, max over the spots on the chip (two locations)
[10] = GST-tagged Cn, mean over the spots on the chip (two locations)
[11] = max over the spots listed under Location on chip
[12] = mean over the spots listed under Location on chip

KFPGAEFLPQTLTPPP [Seqshuffled_9792]
Chip Fluorescence (max) [1]: 0.7156
Chip Fluorescence (mean) [2]: -0.9321

TFWTNPQYRIKLEEED [SeqRBMlowT_1298]
Chip Fluorescence (max) [3]: 1.462
Chip Fluorescence (mean) [4]: 0.439

LKDEIPEVRLNIISNL [SeqRBMlowT_1003]
Chip Fluorescence (max) [5]: 3.957
Chip Fluorescence (mean) [6]: 2.453

TFWTNPQYRIKLEEPD [SeqRBMlowT_34]
Chip Fluorescence (max) [7]: 0.1832
Chip Fluorescence (mean) [8]: -0.5691

TFWSNPQFKITLDEPD [SeqRBMlowT_5518]
Chip Fluorescence (max) [3]: 1.348
Chip Fluorescence (mean) [4]: -0.7061

TFWTNPQYRLNIIDPD [SeqRBMlowT_94]
Chip Fluorescence (max) [9]: 1.251
Chip Fluorescence (mean) [10]: -0.6992

SAGAGVGIVITVTEAE [SeqRBMlowT_164]
Chip Fluorescence (max) [3]: 1.523
Chip Fluorescence (mean) [4]: -0.8688

RTYINPFVTFVDGGNK [SeqRBMlowT_3664]
Chip Fluorescence (max) [7]: 0.3337
Chip Fluorescence (mean) [8]: -0.6971

PSDPQPSIIVHACLED [SeqRBM_9284]
Chip Fluorescence (max) [11]: 3.302
Chip Fluorescence (mean) [12]: 0.8695

HISSSPDITATPTQHR [SeqRIPOR2_Calypte_anna]
Chip Fluorescence (max) [7]: -0.228
Chip Fluorescence (mean) [8]: -0.7974

NMGTGVGIVITITEAV [SeqAKAP79_Meleagris_gallopavo]
Chip Fluorescence (max) [11]: 2.665
Chip Fluorescence (mean) [12]: 0.9097

GTESTPSVVVHVCESE [SeqRCN1_Pongo_abelii]
Chip Fluorescence (max) [5]: 3.823
Chip Fluorescence (mean) [6]: 1.0203

PMLVFRALRIHESPLP [Seqshuffled_9670]
Chip Fluorescence (max) [1]: 0.8908
Chip Fluorescence (mean) [2]: 0.2837

TFWMNPQFRITLDDPD [SeqRBMlowT_69]
Chip Fluorescence (max) [11]: 3.266
Chip Fluorescence (mean) [12]: 0.639

LNAIQEAQDKTDIRNK [Seqshuffled_9749]
Chip Fluorescence (max) [1]: 0.5862
Chip Fluorescence (mean) [2]: -1.046

LKDEIPEVRLNIISSL [SeqRBMlowT_1013]
Chip Fluorescence (max) [3]: 1.476
Chip Fluorescence (mean) [4]: 0.5558

ADEANPRITITPAELP [SeqRBMlowT_3131]
Chip Fluorescence (max) [5]: 16.2722
Chip Fluorescence (mean) [6]: 1.499

KRYWKPQFKFGTQVSE [SeqRBM_7919]
Chip Fluorescence (max) [3]: 1.674
Chip Fluorescence (mean) [4]: -0.01942

NIEKMPELQACGHTSF [SeqRBM_2022]
Chip Fluorescence (max) [5]: 4.705
Chip Fluorescence (mean) [6]: 1.485

TFWTNPQFVITLEEVD [SeqRBMlowT_928]
Chip Fluorescence (max) [11]: 3.091
Chip Fluorescence (mean) [12]: 0.8732

VEEAFPQIIISAEELP [SeqTRESK_Tarsius_syrichta]
Chip Fluorescence (max) [3]: 1.401
Chip Fluorescence (mean) [4]: -0.4076

SHKASPPTLNESPVTH [SeqRBM_2083]
Chip Fluorescence (max) [7]: -0.06558
Chip Fluorescence (mean) [8]: -1.173

ATDNQPGIVVHICADM [SeqRCN1_Daphnia_magna]
Chip Fluorescence (max) [9]: 1.1168
Chip Fluorescence (mean) [10]: 0.4617

TFWTNPQYRITLDSSD [SeqRBMlowT_972]
Chip Fluorescence (max) [3]: 1.828
Chip Fluorescence (mean) [4]: -0.3429

TFWTNPQFKITLEEVD [SeqRBMlowT_4669]
Chip Fluorescence (max) [9]: 1.236
Chip Fluorescence (mean) [10]: 0.1676

STASLPTFSFSPLAPS [SeqRBMlowT_9999]
Chip Fluorescence (max) [11]: 2.669
Chip Fluorescence (mean) [12]: -0.6649

GTDTTPSVVVHVCEDD [SeqRBMlowT_1211]
Chip Fluorescence (max) [1]: 0.8657
Chip Fluorescence (mean) [2]: -0.2753

PKMAPPCINIDFAPTN [SeqRBMlowT_319]
Chip Fluorescence (max) [9]: 1.2058
Chip Fluorescence (mean) [10]: -0.8596

GQSISRNIRPNTFSPL [Seqshuffled_9432]
Chip Fluorescence (max) [7]: 0.04391
Chip Fluorescence (mean) [8]: -1.286

ESFGNELIPFNASKSY [Seqshuffled_9947]
Chip Fluorescence (max) [7]: -0.1304
Chip Fluorescence (mean) [8]: -0.5132

TFWTNPQFRLKIPQVD [SeqRBMlowT_93]
Chip Fluorescence (max) [11]: 3.328
Chip Fluorescence (mean) [12]: 1.497

KSSSSPSASINVPQSN [SeqRBM_1871]
Chip Fluorescence (max) [5]: 3.993
Chip Fluorescence (mean) [6]: 1.569

TPVSDHNFALDVSGKP [Seqshuffled_9616]
Chip Fluorescence (max) [3]: 1.846
Chip Fluorescence (mean) [4]: 0.06645

SDEAGVRIVITVTEAP [SeqRBMlowT_9535]
Chip Fluorescence (max) [9]: 1.153
Chip Fluorescence (mean) [10]: -0.5729

LKDEFPEVRLNIISSL [SeqRBMlowT_1023]
Chip Fluorescence (max) [11]: 2.696
Chip Fluorescence (mean) [12]: 0.6595

QELFISNITVDHSGSY [SeqCEACAM5_Aotus_nancymaae]
Chip Fluorescence (max) [5]: 6.254
Chip Fluorescence (mean) [6]: 1.438

GLLNVYKKTRITYDNL [Seqrandom_1974]
Chip Fluorescence (max) [1]: 0.9025
Chip Fluorescence (mean) [2]: -0.2688

APSSWPSIVVSPPELN [SeqRBM_1086]
Chip Fluorescence (max) [3]: 1.655
Chip Fluorescence (mean) [4]: -0.3843

PGDDQPGIIVHPCEEP [SeqRBMlowT_1949]
Chip Fluorescence (max) [11]: 2.883
Chip Fluorescence (mean) [12]: 1.506

RQPGQALLTLRGHSAS [SeqRBMlowT_5869]
Chip Fluorescence (max) [1]: 0.727
Chip Fluorescence (mean) [2]: -0.3106

KKMAPPCINIDPAPTN [SeqRBMlowT_309]
Chip Fluorescence (max) [3]: 1.659
Chip Fluorescence (mean) [4]: -0.3088

HVSSSPRITITPTQHR [SeqRBMlowT_743]
Chip Fluorescence (max) [11]: 2.778
Chip Fluorescence (mean) [12]: 0.8662

PALESPRIEITSCLGL [SeqNFATC1_Homo_sapiens]
Chip Fluorescence (max) [3]: 1.48
Chip Fluorescence (mean) [4]: 0.3949

GGLRSDSVTMIDQGAY [SeqRBM_2699]
Chip Fluorescence (max) [11]: 2.739
Chip Fluorescence (mean) [12]: 1.043

TFWTNPQFRLKVVDPD [SeqRBMlowT_7375]
Chip Fluorescence (max) [3]: 1.609
Chip Fluorescence (mean) [4]: 0.5158

VRFTLPEKQVHSSAPS [SeqRBM_2315]
Chip Fluorescence (max) [1]: 0.7129
Chip Fluorescence (mean) [2]: -0.8346

KAYINPFMTFIEGGRK [SeqRBMlowT_3627]
Chip Fluorescence (max) [5]: 4.329
Chip Fluorescence (mean) [6]: 0.4696

EGKMDPELYISTVEAQ [SeqRBM_3392]
Chip Fluorescence (max) [5]: 3.895
Chip Fluorescence (mean) [6]: 0.1296

LKDEVPEVRLNIISSL [SeqRBMlowT_4107]
Chip Fluorescence (max) [1]: 0.9435
Chip Fluorescence (mean) [2]: -0.1625

QHMSVPKIQVTPTEIE [SeqRBM_9954]
Chip Fluorescence (max) [5]: 4.025
Chip Fluorescence (mean) [6]: 2.718

TFWTNPQYRLKLEDPD [SeqRBMlowT_1296]
Chip Fluorescence (max) [5]: 7.375
Chip Fluorescence (mean) [6]: 1.564

NAWKNPGQETHTTKKL [Seqshuffled_9929]
Chip Fluorescence (max) [3]: 1.453
Chip Fluorescence (mean) [4]: -0.5656

RLFSVCEQEEEIERAP [Seqshuffled_9643]
Chip Fluorescence (max) [5]: 4.044
Chip Fluorescence (mean) [6]: 1.1677

SDSANPEITITPAELP [SeqRBMlowT_1995]
Chip Fluorescence (max) [5]: 3.663
Chip Fluorescence (mean) [6]: 2.123

TFWTNPQYRMVLDEDD [SeqRBM_7411]
Chip Fluorescence (max) [5]: 5.3741
Chip Fluorescence (mean) [6]: 1.404

PGCATPRIAITPTENM [SeqRBM_2983]
Chip Fluorescence (max) [9]: 1.167
Chip Fluorescence (mean) [10]: 0.2882

REPGVPPLELKGHLSL [SeqRBM_7171]
Chip Fluorescence (max) [3]: 1.816
Chip Fluorescence (mean) [4]: 0.8874

GSPPTPSRSGKPPKPL [SeqRBM_2495]
Chip Fluorescence (max) [11]: 3.396
Chip Fluorescence (mean) [12]: 0.6955

KPFECPSIQITSISPN [SeqNFATC3_Homo_sapiens]
Chip Fluorescence (max) [1]: 0.8784
Chip Fluorescence (mean) [2]: -0.3746

RQPGTLGLTLEGHSNS [SeqRBM_7786]
Chip Fluorescence (max) [1]: 0.7712
Chip Fluorescence (mean) [2]: -0.3628

KKMAPPCINIDPAPTS [SeqRBMlowT_307]
Chip Fluorescence (max) [7]: 0.2085
Chip Fluorescence (mean) [8]: -1.259

TFWTNPQFKVKLEDVD [SeqRBMlowT_6885]
Chip Fluorescence (max) [3]: 1.498
Chip Fluorescence (mean) [4]: -0.7469

RTYMNPFASFLDHSHR [SeqSFB3_Pseudocercospora_musae]
Chip Fluorescence (max) [9]: 1.14
Chip Fluorescence (mean) [10]: -0.1201

TFTDNPQYTIKLVETD [SeqRBM_9774]
Chip Fluorescence (max) [1]: 0.9523
Chip Fluorescence (mean) [2]: 0.09387

FAKHWPKLSDVSPVAH [SeqRBM_8299]
Chip Fluorescence (max) [7]: 0.2862
Chip Fluorescence (mean) [8]: -1.095

LEAAPPDPDRKPPNII [Seqshuffled_9311]
Chip Fluorescence (max) [9]: 1.299
Chip Fluorescence (mean) [10]: -0.4919

TFWTNPQFKLKLLDPD [SeqRBMlowT_4269]
Chip Fluorescence (max) [11]: 3.1491
Chip Fluorescence (mean) [12]: 0.8579

PAFFCEGFTIQADSLD [Seqshuffled_9825]
Chip Fluorescence (max) [9]: 1.294
Chip Fluorescence (mean) [10]: 0.4829

RNPESPSLFLEGHLSR [SeqRBMlowT_8778]
Chip Fluorescence (max) [11]: 3.012
Chip Fluorescence (mean) [12]: 0.475

KAYMCSFMRFIEGGRR [SeqRBMlowT_3379]
Chip Fluorescence (max) [11]: 2.957
Chip Fluorescence (mean) [12]: -0.3215

YPPGTPTKQGQQMAPS [SeqRTS1_Aspergillus_carbonarius]
Chip Fluorescence (max) [7]: -0.3471
Chip Fluorescence (mean) [8]: -1.955

AYPGTYYGQDGSHKKQ [SeqRBM_820]
Chip Fluorescence (max) [11]: 2.763
Chip Fluorescence (mean) [12]: 0.3608

LLLKIPSLNINDVEAS [SeqRBM_1919]
Chip Fluorescence (max) [7]: -0.781
Chip Fluorescence (mean) [8]: -1.379

PSEDQPGIVVHVCEEG [SeqRBMlowT_361]
Chip Fluorescence (max) [5]: 3.843
Chip Fluorescence (mean) [6]: 0.9779

ATSEQPTFDLSSAMPT [SeqRBM_6206]
Chip Fluorescence (max) [7]: -1.8391
Chip Fluorescence (mean) [8]: -2.255

PSSCTPHLYARVHKGQ [SeqRBM_1451]
Chip Fluorescence (max) [7]: 0.2872
Chip Fluorescence (mean) [8]: -1.296

TFWHNPQYVINLEDPD [SeqCAPN11_Anopheles_dirus]
Chip Fluorescence (max) [3]: 1.5542
Chip Fluorescence (mean) [4]: 0.5719
